This experiment concerns mice. Description: SmartCube in vivo neuropharmacological behavioral assay. The conditions noted are these: for minimal effective dose: Mus musculus, ip, 0.25 h, dose having 50% or more total activity in SmartCube, i.p., read-out: MED (minimal effective dose); for AD: antidepressant (percent probability) / AG: analgesic (percent probability) / AP: antipsychotic (percent probability) / AX: anxiolytic (percent probability) / CE: cognitive enhancer (percent probability) / HA: hallucinogenic (percent probability) / MS: mood stabilizer (percent probability) / PS (percent probability) / SD: sedative hypnotic (percent probability) / SE: side effects (percent probability) / UN: uncharacterized CNS activity (percent probability) / XG: anxiogenic (percent probability): SmartCube, i.p. 15 min before test, result at the MED. Summed up: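 Mice dosed i.p. in NMP (Pharmasolve) 15 min before automated video behavioral testing at several doses (e.g., 0.3-30 mpk). Signatures compared to reference drug classes giving per-class probabilities (0-100); MED is the lowest dose with ≥50% total activity.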

The text below walks through data of patent publication US20230116114A1, “COMPOUNDS AND COMPOSITIONS FOR TREATING CNS DISORDERS” (Blue Oak Pharmaceuticals, Inc., priority 2020, published 2023).

Structures can show the parent of a compound that is named as a salt.

One may read the minimal effective dose as the lowest level tested that produced the effect sought.

For the compound `CC1CC2NC(C1)c1ccccc12` (stereo not drawn) [Compound 29, 10-Methyl-12-azatricyclo[6.3.1.0^2,7]dodeca-2,4,6-triene hydrochloride], the minimal effective dose lay within 1 to 10 mg/kg, the “AD: antidepressant (percent probability)” value is recorded as “++ (5% ≤ X < 25%)”, the “AG: analgesic (percent probability)” value is recorded as “++ (5% ≤ X < 25%)” and the “AP: antipsychotic (percent probability)” value is “+ (LOQ ≤ X < 5%)”. Further, the “AX: anxiolytic (percent probability)” value is reported as “+++ (25% ≤ X < 50%)”, the “CE: cognitive enhancer (percent probability)” value is “+ (LOQ ≤ X < 5%)”, the “HA: hallucinogenic (percent probability)” value is “+ (LOQ ≤ X < 5%)” and the “MS: mood stabilizer (percent probability)” value (“MS … (percent probability)” below) is given as “+ (LOQ ≤ X < 5%)”. For the same compound, the “PS (percent probability)” value is reported as “+ (LOQ ≤ X < 5%)”, the “SD: sedative hypnotic (percent probability)” value (“SD … (percent probability)” below) is on record as “+ (LOQ ≤ X < 5%)”, the “SE: side effects (percent probability)” value is on record as “+ (LOQ ≤ X < 5%)” and the “UN: uncharacterized CNS activity (percent probability)” value (“UN … (percent probability)” below) is listed as “+ (LOQ ≤ X < 5%)”. Also, the “XG: anxiogenic (percent probability)” value is given as “+ (LOQ ≤ X < 5%)”.

On to `CC(C)N1C2CCC(=O)C1c1ccccc12` (stereo not drawn) [Compound 39, hydrochloride], for which the minimal effective dose was more than 30 mg/kg, the “AD: antidepressant (percent probability)” value is listed as “+ (LOQ ≤ X < 5%)”, the “AG: analgesic (percent probability)” value is on record as “+ (LOQ ≤ X < 5%)” and the “AP: antipsychotic (percent probability)” value was “+ (LOQ ≤ X < 5%)”. Besides, the “AX: anxiolytic (percent probability)” value is on record as “+ (LOQ ≤ X < 5%)”, the “CE: cognitive enhancer (percent probability)” value is “+ (LOQ ≤ X < 5%)”, the “HA: hallucinogenic (percent probability)” value is listed as “+ (LOQ ≤ X < 5%)” and the “MS … (percent probability)” value is reported as “+ (LOQ ≤ X < 5%)”. Also, the “PS (percent probability)” value is on record as “+ (LOQ ≤ X < 5%)”, the “SD … (percent probability)” value is “+ (LOQ ≤ X < 5%)”, the “SE: side effects (percent probability)” value is “+ (LOQ ≤ X < 5%)” and the “UN … (percent probability)” value is given as “+ (LOQ ≤ X < 5%)”. Moreover, the “XG: anxiogenic (percent probability)” value is given as “+ (LOQ ≤ X < 5%)”.

Take `c1ccc2c(c1)C1CCCC2N1C1CC1` [Compound 15, 12-Cyclopropyl-12-azatricyclo[6.3.1.0^20.7]dodeca-2,4,6-triene hydrochloride]: the minimal effective dose lay within 10 to 30 mg/kg, the “AD: antidepressant (percent probability)” value was “++++ (50% ≤ X < 100%)”, the “AG: analgesic (percent probability)” value is “++ (5% ≤ X < 25%)” and the “AP: antipsychotic (percent probability)” value is “+ (LOQ ≤ X < 5%)”. In addition, the “AX: anxiolytic (percent probability)” value is given as “++ (5% ≤ X < 25%)”, the “CE: cognitive enhancer (percent probability)” value is given as “+ (LOQ ≤ X < 5%)”, the “HA: hallucinogenic (percent probability)” value is on record as “+ (LOQ ≤ X < 5%)” and the “MS … (percent probability)” value is given as “+ (LOQ ≤ X < 5%)”. In addition, the “PS (percent probability)” value is reported as “++ (5% ≤ X < 25%)”, the “SD … (percent probability)” value is listed as “+ (LOQ ≤ X < 5%)”, the “SE: side effects (percent probability)” value is “+ (LOQ ≤ X < 5%)” and the “UN … (percent probability)” value is “+ (LOQ ≤ X < 5%)”. Moreover, the “XG: anxiogenic (percent probability)” value is recorded as “++ (5% ≤ X < 25%)”.

As to `CC([C@@H](C)F)N1C2CCCC1c1ccccc12` (stereo in doubt) [Compound 23, 12-(3-Fluorobutan-2-yl)-12-azatricyclo[6.3.1.0^2,7]dodeca-2,4,6-triene hydrochloride], the minimal effective dose is more than 30 mg/kg, the “AD: antidepressant (percent probability)” value is listed as “+ (LOQ ≤ X < 5%)”, the “AG: analgesic (percent probability)” value is recorded as “+ (LOQ ≤ X < 5%)” and the “AP: antipsychotic (percent probability)” value was “+ (LOQ ≤ X < 5%)”. Besides, the “AX: anxiolytic (percent probability)” value was “+ (LOQ ≤ X < 5%)”, the “CE: cognitive enhancer (percent probability)” value was “+ (LOQ ≤ X < 5%)”, the “HA: hallucinogenic (percent probability)” value was “+ (LOQ ≤ X < 5%)” and the “MS … (percent probability)” value was “+ (LOQ ≤ X < 5%)”. The “PS (percent probability)” value is recorded as “+ (LOQ ≤ X < 5%)”, the “SD … (percent probability)” value is “+ (LOQ ≤ X < 5%)”, the “SE: side effects (percent probability)” value was “+ (LOQ ≤ X < 5%)” and the “UN … (percent probability)” value is recorded as “++ (5% ≤ X < 25%)”. The “XG: anxiogenic (percent probability)” value is reported as “+ (LOQ ≤ X < 5%)”.

As to `CC1CC2c3ccccc3C(C1)N2C1CCC1` (stereo not drawn) [Compound 36, 12-Cyclobutyl-10-methyl-12-azatricyclo[6.3.1.0^2,7]dodeca-2,4,6-triene hydrochloride], the minimal effective dose fell in the range of 1 to 10 mg/kg, the “AD: antidepressant (percent probability)” value is “++++ (50% ≤ X < 100%)”, the “AG: analgesic (percent probability)” value is on record as “+ (LOQ ≤ X < 5%)” and the “AP: antipsychotic (percent probability)” value is “+ (LOQ ≤ X < 5%)”. The “AX: anxiolytic (percent probability)” value is listed as “+ (LOQ ≤ X < 5%)”, the “CE: cognitive enhancer (percent probability)” value is “+ (LOQ ≤ X < 5%)”, the “HA: hallucinogenic (percent probability)” value is given as “++ (5% ≤ X < 25%)” and the “MS … (percent probability)” value was “+ (LOQ ≤ X < 5%)”. In addition, the “PS (percent probability)” value is given as “+ (LOQ ≤ X < 5%)”, the “SD … (percent probability)” value is on record as “+ (LOQ ≤ X < 5%)”, the “SE: side effects (percent probability)” value is recorded as “+ (LOQ ≤ X < 5%)” and the “UN … (percent probability)” value is on record as “++ (5% ≤ X < 25%)”. The “XG: anxiogenic (percent probability)” value is reported as “+ (LOQ ≤ X < 5%)”.

For the compound `CC(C1CC1)N1C2CCCC1c1ccccc12` (stereo not drawn) [Compound 21, 12-(1-Cyclopropylethyl)-12-azatricyclo[6.3.1.0]dodeca-2,4,6-triene hydrochloride], the minimal effective dose is 0.1 to 1 mg/kg, the “AD: antidepressant (percent probability)” value is listed as “+++ (25% ≤ X < 50%)”, the “AG: analgesic (percent probability)” value was “++ (5% ≤ X < 25%)” and the “AP: antipsychotic (percent probability)” value is “+ (LOQ ≤ X < 5%)”. For the same compound, the “AX: anxiolytic (percent probability)” value is “++ (5% ≤ X < 25%)”, the “CE: cognitive enhancer (percent probability)” value is “+ (LOQ ≤ X < 5%)”, the “HA: hallucinogenic (percent probability)” value is “+ (LOQ ≤ X < 5%)” and the “MS … (percent probability)” value was “+ (LOQ ≤ X < 5%)”. Besides, the “PS (percent probability)” value is “+ (LOQ ≤ X < 5%)”, the “SD … (percent probability)” value is “+ (LOQ ≤ X < 5%)”, the “SE: side effects (percent probability)” value is “+ (LOQ ≤ X < 5%)” and the “UN … (percent probability)” value is “+ (LOQ ≤ X < 5%)”. Also, the “XG: anxiogenic (percent probability)” value was “+ (LOQ ≤ X < 5%)”.

In the case of `CCC(C)N1C2CC(C)CC1c1ccccc12` (stereo not drawn) [Compound 37, 12-(Butan-2-yl)-10-methyl-12-azatricyclo[6.3.1.0^2,7]dodeca-2,4,6-triene hydrochloride], the minimal effective dose lay in the range of 1 to 10 mg/kg, the “AD: antidepressant (percent probability)” value is reported as “++ (5% ≤ X < 25%)”, the “AG: analgesic (percent probability)” value is “++ (5% ≤ X < 25%)” and the “AP: antipsychotic (percent probability)” value is “+ (LOQ ≤ X < 5%)”. For the same compound, the “AX: anxiolytic (percent probability)” value was “+++ (25% ≤ X < 50%)”, the “CE: cognitive enhancer (percent probability)” value is reported as “+ (LOQ ≤ X < 5%)”, the “HA: hallucinogenic (percent probability)” value is “+ (LOQ ≤ X < 5%)” and the “MS … (percent probability)” value was “+ (LOQ ≤ X < 5%)”. For the same compound, the “PS (percent probability)” value is recorded as “++ (5% ≤ X < 25%)”, the “SD … (percent probability)” value is “+ (LOQ ≤ X < 5%)”, the “SE: side effects (percent probability)” value was “+ (LOQ ≤ X < 5%)” and the “UN … (percent probability)” value is given as “+ (LOQ ≤ X < 5%)”. Besides, the “XG: anxiogenic (percent probability)” value is “+ (LOQ ≤ X < 5%)”.

On to `CCCC(C)N1C2CCCC1c1ccccc12` (stereo not drawn) [Compound 16, 12-(Pentan-2-yl)-12-azatricyclo[6.3.1.0^20.7]dodeca-2,4,6-triene hydrochloride], for which the minimal effective dose lay within 10 to 30 mg/kg, the “AD: antidepressant (percent probability)” value was “+++ (25% ≤ X < 50%)”, the “AG: analgesic (percent probability)” value was “++ (5% ≤ X < 25%)” and the “AP: antipsychotic (percent probability)” value is listed as “+ (LOQ ≤ X < 5%)”. The “AX: anxiolytic (percent probability)” value is listed as “++ (5% ≤ X < 25%)”, the “CE: cognitive enhancer (percent probability)” value is recorded as “+ (LOQ ≤ X < 5%)”, the “HA: hallucinogenic (percent probability)” value is listed as “++ (5% ≤ X < 25%)” and the “MS … (percent probability)” value was “+ (LOQ ≤ X < 5%)”. Moreover, the “PS (percent probability)” value is “+ (LOQ ≤ X < 5%)”, the “SD … (percent probability)” value is reported as “+ (LOQ ≤ X < 5%)”, the “SE: side effects (percent probability)” value is given as “+ (LOQ ≤ X < 5%)” and the “UN … (percent probability)” value is given as “++ (5% ≤ X < 25%)”. The “XG: anxiogenic (percent probability)” value is on record as “+ (LOQ ≤ X < 5%)”.

For the compound `FCC(CF)N1C2CCCC1c1ccccc12` [Compound 14, 12-(1,3-Difluoropropan-2-yl)-12-azatricyclo[6.3.1.0^20.7]dodeca-2,4,6-triene hydrochloride], the minimal effective dose is 10 to 30 mg/kg, the “AD: antidepressant (percent probability)” value is “++ (5% ≤ X < 25%)”, the “AG: analgesic (percent probability)” value is recorded as “+++ (25% ≤ X < 50%)” and the “AP: antipsychotic (percent probability)” value is listed as “+ (LOQ ≤ X < 5%)”. The “AX: anxiolytic (percent probability)” value is given as “++ (5% ≤ X < 25%)”, the “CE: cognitive enhancer (percent probability)” value is “+ (LOQ ≤ X < 5%)”, the “HA: hallucinogenic (percent probability)” value is reported as “+ (LOQ ≤ X < 5%)” and the “MS … (percent probability)” value was “+ (LOQ ≤ X < 5%)”. Also, the “PS (percent probability)” value is given as “+ (LOQ ≤ X < 5%)”, the “SD … (percent probability)” value is recorded as “+ (LOQ ≤ X < 5%)”, the “SE: side effects (percent probability)” value was “+ (LOQ ≤ X < 5%)” and the “UN … (percent probability)” value is “+ (LOQ ≤ X < 5%)”. The “XG: anxiogenic (percent probability)” value is on record as “+ (LOQ ≤ X < 5%)”.
